Results taken from patent US5436229A, “Bisulfite adducts of arginine aldehydes” (Eli Lilly and Company, priority 1994, dated 1995).
Non-standard residues stand in square brackets, D forms with d. Residues, ends and D or L forms follow the SMILES beside them. ξ: configuration not given here. dPip = O=C(O)[C@H]1CCCCN1; dThz = O=C(O)[C@H]1CSCN1; ξAze = O=C(O)C1CCN1

Columns and labels:
human thrombin = human thrombin (Homo sapiens, UniProt P00734); assay: Thrombin amidase inhibition (Kass), chromogenic substrate; format: biochemical
Method in brief: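 Purified human thrombin (8 NIH units/ml solution) mixed with compound in 50% aqueous methanol and 0.03M Tris, 0.15M NaCl, pH 7.4; chromogenic substrate (0.25 mg/ml solution) added, p-nitroaniline release followed at 405 nm. Free thrombin read from a standard curve; Kass (L/mol) is the mean over a range of compound concentrations.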

[1] = Index of Bioavailability (plasma TT AUC, oral vs i.v.); format: in vivo; settings: rats, oral vs i.v. bolus
From the text: Assays are done in duplicate and averaged.
Each sample population represents alternating sequential time points.

factor Xa = target: T1, factor Xa (Homo sapiens, UniProt P00742); assay: Serine protease inhibition (Kass), factor Xa; format: biochemical
T1 construct: Human factors X, Xa, IXa, XIa, and XIIa are purchased from Enzyme Research Laboratories; purchased Enzyme Research Laboratories, South Bend, Ind
Method in brief: (§1)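 Chromogenic p-nitroanilide substrate assays run as for human thrombin; trypsin with N-Benzoyl-Phe-Val-Arg-p-nitroanilide, human factor Xa with N-Benzoyl-Ile-Glu-Gly-Arg-p-nitroanilide. Values are association constants (Kass).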

Bovine trypsin = target: T2, Bovine trypsin (Bos taurus, UniProt P00760); assay: Serine protease inhibition (Kass), trypsin; format: biochemical
T2 construct: Bovine trypsin is purchased from Worthington Biochemicals; purchased Worthington Biochemicals, Freehold, N.J
T2 sequence (P00760 24-246): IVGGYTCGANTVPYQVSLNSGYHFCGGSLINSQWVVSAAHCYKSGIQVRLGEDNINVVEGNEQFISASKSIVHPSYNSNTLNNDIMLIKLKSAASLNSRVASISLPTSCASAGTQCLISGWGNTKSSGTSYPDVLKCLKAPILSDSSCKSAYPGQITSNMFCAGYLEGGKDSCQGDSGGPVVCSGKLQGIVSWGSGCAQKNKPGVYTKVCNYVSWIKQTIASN
Method in brief: as §1

Human plasmin = target: T3, Human plasmin (Homo sapiens, UniProt P00747); assay: Serine protease inhibition (Kass), plasmin; format: biochemical
T3 construct: Human plasmin is purchased from Boehringer Mannheim; purchased Boehringer Mannheim, Indianapolis, Ind
Method in brief: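 Chromogenic enzyme assays run as for human thrombin, giving association constants (Kass). Human plasmin used with H-D-Val-Leu-Lys-p-nitroanilide; t-PA (single-chain nt-PA or modified mt-PA6) with H-D-Ile-Pro-Arg-p-nitroanilide.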

[2] = target: T4, tissue plasminogen activator (t-PA) (Homo sapiens, UniProt P00750); assay: Serine protease inhibition (Kass), t-PA; format: biochemical
T4 construct: purchased American Diagnostica, Greenwich, Conn

human plasma [3] = assay: Human plasma anticoagulation, thrombin time (TT); format: biochemical
Method in brief: (§2)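 Compounds added across a wide concentration range to human plasma; APTT, PT and TT clotting times measured on a coagulation instrument, bovine thrombin used for plasma assays. Concentration doubling clotting time estimated by linear extrapolation.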

human plasma [4] = assay: Human plasma anticoagulation, activated partial thromboplastin time (APTT); format: biochemical
Method in brief: as §2

human plasma [5] = assay: Human plasma anticoagulation, prothrombin time (PT); format: biochemical
Method in brief: as §2

T3 sequence (P00747 581-810 limits assumed): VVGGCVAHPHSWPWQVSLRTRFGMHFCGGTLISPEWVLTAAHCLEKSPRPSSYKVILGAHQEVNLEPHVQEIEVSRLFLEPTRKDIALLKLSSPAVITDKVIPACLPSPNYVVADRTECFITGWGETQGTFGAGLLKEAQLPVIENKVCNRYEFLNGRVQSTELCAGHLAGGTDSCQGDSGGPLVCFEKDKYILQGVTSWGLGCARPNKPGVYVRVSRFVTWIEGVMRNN
T3 sequence (P00747 97-580 partner limits assumed): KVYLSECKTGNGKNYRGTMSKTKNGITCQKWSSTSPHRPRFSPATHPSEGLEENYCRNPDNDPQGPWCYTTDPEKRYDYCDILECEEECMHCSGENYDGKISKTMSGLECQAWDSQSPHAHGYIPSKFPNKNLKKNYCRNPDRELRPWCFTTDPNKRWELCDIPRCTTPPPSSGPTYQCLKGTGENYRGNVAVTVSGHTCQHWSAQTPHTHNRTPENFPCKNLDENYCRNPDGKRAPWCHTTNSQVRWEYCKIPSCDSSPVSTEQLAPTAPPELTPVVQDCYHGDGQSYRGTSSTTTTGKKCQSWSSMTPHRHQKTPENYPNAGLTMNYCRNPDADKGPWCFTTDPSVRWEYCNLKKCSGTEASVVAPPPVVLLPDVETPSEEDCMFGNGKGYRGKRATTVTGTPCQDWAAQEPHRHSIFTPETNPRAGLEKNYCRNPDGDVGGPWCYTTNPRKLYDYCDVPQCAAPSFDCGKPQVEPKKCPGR
T1 sequence (P00742 235-488 limits assumed): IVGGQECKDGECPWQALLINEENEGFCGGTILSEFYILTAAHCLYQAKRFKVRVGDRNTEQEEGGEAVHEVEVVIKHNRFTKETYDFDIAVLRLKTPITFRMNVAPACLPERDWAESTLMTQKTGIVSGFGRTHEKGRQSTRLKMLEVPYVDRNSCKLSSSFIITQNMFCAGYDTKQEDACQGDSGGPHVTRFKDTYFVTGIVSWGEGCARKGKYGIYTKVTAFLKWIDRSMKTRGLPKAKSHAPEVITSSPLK
T1 sequence (P00742 41-179 partner limits assumed): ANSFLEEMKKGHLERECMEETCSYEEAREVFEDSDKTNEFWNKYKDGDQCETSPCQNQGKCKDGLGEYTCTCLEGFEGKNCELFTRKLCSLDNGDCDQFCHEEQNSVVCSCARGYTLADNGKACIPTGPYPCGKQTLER
T4 sequence (P00750 36-562): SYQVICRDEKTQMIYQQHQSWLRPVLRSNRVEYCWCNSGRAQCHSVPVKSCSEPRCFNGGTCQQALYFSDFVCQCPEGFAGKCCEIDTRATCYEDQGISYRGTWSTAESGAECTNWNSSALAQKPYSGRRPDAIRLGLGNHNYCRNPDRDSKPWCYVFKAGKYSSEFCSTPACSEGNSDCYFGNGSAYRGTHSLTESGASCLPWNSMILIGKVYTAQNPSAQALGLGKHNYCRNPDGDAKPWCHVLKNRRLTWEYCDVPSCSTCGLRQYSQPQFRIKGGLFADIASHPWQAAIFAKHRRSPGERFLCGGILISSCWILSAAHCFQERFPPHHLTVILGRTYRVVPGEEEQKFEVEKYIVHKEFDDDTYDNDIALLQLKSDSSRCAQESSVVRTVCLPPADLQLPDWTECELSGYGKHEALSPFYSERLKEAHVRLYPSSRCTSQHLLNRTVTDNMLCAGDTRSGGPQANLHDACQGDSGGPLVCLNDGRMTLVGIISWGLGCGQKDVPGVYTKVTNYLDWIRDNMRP

Compound	Kass Human Thrombin (human thrombin) [L/mol × 10^6]	Percent Relative Activity (Index of Bioavailability) [1] [%]	Kass Xa (factor Xa) [L/mol × 10^6]	Kass Trypsin (Bovine trypsin) [L/mol × 10^6]	Kass Plasmin (Human plasmin) [L/mol × 10^6]	Kass t-PA [2] [L/mol × 10^6]	2 × Clotting time TT (human plasma [3]) [ng/mL]	2 × Clotting time APTT (human plasma [4])	2 × Clotting time PT (human plasma [5])
Cl.Cl.Cl.N=C(N)NCCC[C@@H](C=O)NC(=O)[C@@H]1CCCN1C(=O)C1CCCCC1N.O (stereo partly drawn) [Example 22, 2-aminocyclohexylcarbonyl-L-Pro-L-Arginine Aldehyde Trihydrochloride Monohydrate]	39	15	–	–	–	–	–	–	–
Cl.Cl.Cl.N=C(N)NCCC[C@@H](C=O)NC(=O)[C@@H]1CCCN1C(=O)[C@H]1C[C@@H](Oc2ccccc2)CN1.O (relative stereo) [Example 12, D-Cis-(4-phenoxy)Prolinyl-L-Prolinyl-L-Arginine Aldehyde Trihydrochloride Monohydrate]	25	16	–	–	–	–	–	–	–
D-Prolinyl-L-Prolinyl-L-Arginine Aldehyde Dihydrochloride [Example 2]	12	36	–	–	–	–	–	–	–
Cl.Cl.N=C(N)NCCC[C@@H](C=O)NC(=O)C1CCN1C(=O)[C@H]1CCCCN1 (stereo partly drawn) [Example 3, D-Homoprolinyl-L-Azetidinyl-L-Arginine Aldehyde Dihydrochloride] (H-[dPip]-[ξAze]-Arg-aldehyde)	45	32	–	–	–	–	–	–	–
CNC(CC(=O)N1CCC[C@H]1C(=O)N[C@H](C=O)CCCNC(=N)N)c1ccccc1.Cl.Cl.O.O (stereo partly drawn) [Example 15, N-methyl-3-amino-3-phenylpropionyl-L-Prolinyl-L-Arginine Aldehyde Dihydrochloride Dihydrate]	70	28	–	–	–	–	–	–	–
Cl.Cl.N=C(N)NCCC[C@@H](C=O)NC(=O)[C@@H]1CCCN1C(=O)[C@H]1CSCN1 [Example 4, D-Thiazolidinyl-4-Carbonyl-L-Prolinyl-L-Arginine Aldehyde Dihydrochloride] (H-[dThz]-Pro-Arg-aldehyde)	5	16	–	–	–	–	–	–	–
Cl.Cl.N=C(N)NCCC[C@@H](C=O)NC(=O)[C@@H]1CCCN1C(=O)C1CNCCN1 (stereo partly drawn) [Example 9, D,L-Piperazin-2-yl-L-Prolinyl-L-Arginine Aldehyde Dihydrochloride]	121	19	–	–	–	–	–	–	–
Cl.Cl.N=C(N)NCCC[C@@H](C=O)NC(=O)[C@@H]1CCCN1C(=O)C1NCCCC2CCCCC21 (mixture of isomers) [Example 8, DL-cis-3-aza-bicyclo[5.4.0]undecanyl-2-carbonyl-L-prolinyl-L-arginine aldehyde dihydrochloride]	595	43	–	–	–	–	–	–	–
CCOC(=O)N[C@](CC)(Cc1ccccc1)C(=O)N1CCC[C@H]1C(=O)N[C@H](C=O)CCCNC(=N)N.Cl [Example 35, N-ethoxycarbonyl-D-phenylalanyl(αethyl)-L-prolinyl-L-arginine aldehyde hydrochloride]	57	–	0.036	4.9	0.12	0.002	93	3,200 ng/mL	3,300 ng/mL
Cl.N=C(N)NCCC[C@@H](C=O)NC(=O)[C@@H]1CCCN1C(=O)[C@@H](Cc1ccccc1)NS(=O)(=O)c1nccs1 [Example 63, N-(2-thiazolylsulfonyl)-D-phenylalanyl-L-Prolinyl-L-Arginine Aldehyde Hydrochloride]	68	–	2.8	52	3.4	0.31	66	810 ng/mL	2,900 ng/mL
CCOC(=O)N[C@@H](Cc1ccccc1)C(=O)N1CCC[C@@]1(C)C(=O)N[C@H](C=O)CCCNC(=N)N.Cl [Example 29, N-ethoxycarbonyl-phenylalanyl(αmethyl)-L-prolinyl-L-arginine aldehyde hydrochloride]	5.0	–	0.025	1.7	0.020	0.00072	190	5,400 ng/mL	6,100 ng/mL
C[C@@]1(C(=O)N[C@H](C=O)CCCNC(=N)N)CCCN1C(=O)[C@@H](Cc1ccccc1)NS(C)(=O)=O.Cl [Example 43, N-methylsulfonyl-D-phenylalanyl(αmethyl)-L-prolinyl-L-arginine aldehyde hydrochloride]	31	–	0.23	28	0.56	0.027	41	1,500 ng/mL	1,600 ng/mL
CNCC(Cc1ccccc1)C(=O)N1CCC[C@H]1C(=O)N[C@H](C=O)CCCNC(=N)N.Cl.Cl.O (stereo partly drawn) [Example 17, N-Methyl-3-amino-2-benzylpropionyl-L-Pro-L-Arg Aldehyde Dihydrochloride Monohydrate]	12	8	–	–	–	–	–	–	–
CCS(=O)(=O)N[C@@H](Cc1ccccc1)C(=O)N1CCC[C@@]1(C)C(=O)N[C@H](C=O)CCCNC(=N)N.Cl [Example 33, N-ethylsulfonylphenylalanyl(αmethyl)-L-prolinyl-L-arginine aldehyde hydrochloride]	0.6	–	0.027	1.7	0.056	0.007	300	5,400 ng/mL	7,300 ng/mL
CCOC(=O)N[C@H](Cc1ccccc1)C(=O)N1CCC[C@@]1(C)C(=O)N[C@H](C=O)CCCNC(=N)N.Cl [Example 27, N-ethoxycarbonyl-D-Phenylalanyl(α-methyl)-L-prolinyl-L-arginine aldehyde hydrochloride]	75	–	0.044	2.4	0.059	0.00079	48	2,500 ng/mL	2,200 ng/mL
COCC(=O)N[C@H](Cc1ccccc1)C(=O)N1CCC[C@H]1C(=O)N[C@H](C=O)CCCNC(=N)N.Cl [Example 68, N-(methoxyacetyl)-D-phenylalanyl-L-Prolinyl-L-Arginine Aldehyde Hydrochloride]	33	–	0.29	57	3.8	0.30	38	440 ng/mL	1,200 ng/mL
Cl.N=C(N)NCCC[C@@H](C=O)NC(=O)[C@@H]1CCCN1C(=O)[C@@H](Cc1ccccc1)NC(=O)Cc1cccnc1 [Example 48, N-(3-pyridylacetyl)-D-phenylalanyl-L-Prolinyl-L-Arginine Aldehyde Hydrochloride]	13	–	0.067	5.2	0.27	0.22	150	2,300 ng/mL	3,400 ng/mL
Cl.N=C(N)NCCC[C@@H](C=O)NC(=O)[C@@H]1CCCN1C(=O)[C@@H](Cc1ccccc1)NC(=O)C(F)(F)F [Example 69, N-(trifluoroacetyl)-D-phenylalanyl-L-Prolinyl-L-Arginine Aldehyde Hydrochloride]	26	–	0.033	15	0.31	0.17	59	1,300 ng/mL	1,800 ng/mL
